test: physchem; conditions: bicarbonate buffer

| Compound | remaining at 24 h, 5000 µM [%] |
| --- | --- |
| Fc1ccc2c(c1)C1=NCCN1C(=S)S2 | > 95 |
| S=C1Sc2cc(Br)ccc2C2=NCCCN12 | > 95 |
| Cc1cccc2c1C1=NCCN1C(=S)S2 | > 95 |
| N=C1Sc2ccccc2C2=NCCCN12 | < 5 |
